Experimental findings from US7419969B2 (Bristol-Myers Squibb Company, priority 2004, dated 2008) are described below.

System in one series: not given
Test: not given
Details: not given
With `CNC(=O)c1cc(F)ccc1CNC(=O)c1nc2n(c(=O)c1O)CCCOC21CCOCC1` [Example 115, Spiro[4H-pyran-4,10′(4′H)-[6H]pyrimido[2,1-c][1,4]oxazepine]-2′-carboxamide, N-[[4-fluoro-2-[(methylamino)carbonyl]phenyl]methyl]-2,3,5,6,7′,8′-hexahydro-3′-hydroxy-4′-oxo-], the melting point (usually the temperature of the solid-liquid transition) is 211 °C (dec.).

Consider `CS(=O)(=O)c1cc(F)ccc1CNC(=O)c1nc2n(c(=O)c1O)CCCOC21CCOCC1` [Example 116, Spiro[4H-pyran-4,10′(4′H)-[6H]pyrimido[2,1-c][1,4]oxazepine]-2′-carboxamide, N-[[4-fluoro-2-(methylsulfonyl)phenyl]methyl]-2,3,5,6,7′,8′-hexahydro-3′-hydroxy-4′-oxo-], for which the melting point is 257 °C (dec.).

As for `COP(=O)(OC)c1cc(F)ccc1CNC(=O)c1nc2n(c(=O)c1O)CCCOC21CCOCC1` [Example 117, Phosphonic acid, [5-fluoro-2-[[[(2,3,5,6,7′,8′-hexahydro-3′-hydroxy-4′-oxospiro[4H-pyran-4,10′(4′H) -[6H]pyrimido[2,1-c][1,4]oxazepin]-2′-yl)carbonyl]amino]methyl]phenyl]-, dimethyl ester], the melting point is 234 °C (dec.).

Another series deals with T1, HIV-integrase (Human immunodeficiency virus type 1 group M subtype B, UniProt P04585).
T1 construct: Recombinant integrase (0.26 ng) was incubated with the beads
Briefly: in-vitro activity against HIV-integrase (HIV Integrase Inhibition, SPA bead assay). Particulars: Table 1a; recombinant integrase, activity class. The format is biochemical. Summed up:
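Recombinant integrase (0.26 ng) pre-bound for 90 min at 37 °C to biotinylated substrate DNA on streptavidin SPA beads, then washed. Inhibitors added with 33P-labelled target DNA; reaction stopped with 10 mM EDTA. Scintillation CPM taken as integration signal.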
Take `Cc1nnn(-c2cc(F)ccc2CNC(=O)c2nc3n(c(=O)c2O)CCOC32CCC2)c1C` [Example 102, Spiro[cyclobutane-1,9′(4′H)-pyrimido[2,1-c][1,4]oxazine]-2′-carboxamide, N-[[2-(4,5-dimethyl-1H-1,2,3-triazol-1-yl)-4-fluorophenyl]methyl]-6′,7′-dihydro-3′-hydroxy-4′-oxo-]: the IC50 – broadly, the concentration that gives 50% inhibition – was in the range of 10 to 100 nM.

As for `CC(C)(C)c1cn(-c2cc(F)ccc2CNC(=O)c2nc3n(c(=O)c2O)CCOC32CCC2)nn1` [Example 103, Spiro[cyclobutane-1,9′(4′H)-pyrimido[2,1-c][1,4]oxazine]-2′-carboxamide, N-[[2-[4-(1,1-dimethylethyl)-1H-1,2,3-triazol-1-yl]-4-fluorophenyl]methyl]-6′,7′-dihydro-3′-hydroxy-4′-oxo-], the IC50 is 10 to 100 nM.

With `Cc1cnnn1-c1cc(F)ccc1CNC(=O)c1nc2n(c(=O)c1O)CCOC21CCC1` [Example 104, Spiro[cyclobutane-1,9′(4′H)-pyrimido[2,1-c][1,4]oxazine]-2′-carboxamide, N-[[4-fluoro-2-(5-methyl-1H-1,2,3-triazol-1-yl)phenyl]methyl]-6′,7′-dihydro-3′-hydroxy-4′-oxo-], the concentration for half-maximal inhibition (IC50) fell in the range of 1 to 10 nM.

Consider `O=C(NCc1ccc(F)cc1N1CCOC1=O)c1nc2n(c(=O)c1O)CCOC21CCC1` [Example 105, Spiro[cyclobutane-1,9′(4′H)-pyrimido[2,1-c][1,4]oxazine]-2′-carboxamide, N-[[4-fluoro-2-(2-oxo-3-oxazolidinyl)phenyl]methyl]-6′,7′-dihydro-3′-hydroxy-4′-oxo-], for which the IC50 fell in the range of 1 to 10 nM.

Turning to `O=C(NCc1ccc(F)cc1N1CCC1=O)c1nc2n(c(=O)c1O)CCOC21CCC1` [Example 106, Spiro[cyclobutane-1,9′(4′H)-pyrimido[2,1-c][1,4]oxazine]-2′-carboxamide, N-[[4-fluoro-2-(2-oxo-1-azetidinyl)phenyl]methyl]-6′,7′-dihydro-3′-hydroxy-4′-oxo-], the IC50 was in the range of 1 to 10 nM.

Consider `Cc1nnn(-c2cc(F)ccc2CNC(=O)c2nc3n(c(=O)c2O)CCCOC32CCC2)c1C` [Example 107, Spiro[cyclobutane-1,10′(4′H)-[6H]pyrimido[2,1-c][1,4]oxazepine]-2′-carboxamide, N-[[2-(4,5-dimethyl-1H-1,2,3-triazol-1-yl)-4-fluorophenyl]methyl]-7′,8′-dihydro-3′-hydroxy-4′-oxo-], for which the 50% inhibitory concentration (IC50) lay in the range of 10 to 100 nM.

Take `Cc1ncn(-c2cc(F)ccc2CNC(=O)c2nc3n(c(=O)c2O)CCOC32COC2)n1` [Example 108, Spiro[oxetane-3,9′(4′H)-pyrimido[2,1-c][1,4]oxazine]-2′-carboxamide, N-[[4-fluoro-2-(3-methyl-1H-1,2,4-triazol-1-yl)phenyl]methyl]-6′,7′-dihydro-3′-hydroxy-4′-oxo-]: the IC50 was 1 to 10 nM.

As for `O=C(NCc1ccc(F)cc1)c1nc2n(c(=O)c1O)CCOC21COC1` [Example 109, Spiro[oxetane-3,9′(4′H)-pyrimido[2,1-c][1,4]oxazine]-2′-carboxamide, N-[(4-fluorophenyl)methyl]-6′,7′-dihydro-3′-hydroxy-4′-oxo-], the IC50 lay in the range of 1 to 10 nM.

In the case of `O=C(NCc1ccc(F)cc1-n1cncn1)c1nc2n(c(=O)c1O)CCOC21COC1` [Example 110, Spiro[oxetane-3,9′(4′H)-pyrimido[2,1-c][1,4]oxazine]-2′-carboxamide, N-[[4-fluoro-2-(1H-1,2,4-triazol-1-yl)phenyl]methyl]-6′,7′-dihydro-3′-hydroxy-4′-oxo-], the IC50 was in the range of 1 to 10 nM.

Turning to `CS(=O)(=O)c1cc(F)ccc1CNC(=O)c1nc2n(c(=O)c1O)CCOC21COC1` [Example 111, Spiro[oxetane-3,9′(4′H)-pyrimido[2,1-c][1,4]oxazine]-2′-carboxamide, N-[[4-fluoro-2-(methylsulfonyl)phenyl]methyl]-6′,7′-dihydro-3′-hydroxy-4′-oxo-], the IC50 was 10 to 100 nM.

Regarding `O=C(NCc1ccc(F)cc1-n1ccnn1)c1nc2n(c(=O)c1O)CCOC21CCOCC1` [Example 112, Spiro[4H-pyran-4,9′(4′H)-pyrimido[2,1-c][1,4]oxazine]-2′-carboxamide, N-[[4-fluoro-2-(1H-1,2,3-triazol-1-yl)phenyl]methyl]-2,3,5,6,6′,7′-hexahydro-3′-hydroxy-4′-oxo-], the half-maximal inhibitory concentration (IC50) is 1 to 10 nM.

In the case of `O=C(NCc1ccc(F)cc1-n1ccnn1)c1nc2n(c(=O)c1O)CCOC21CCCC1` [Example 113, Spiro[cyclopentane-1,9′(4′H)-pyrimido[2,1-c][1,4]oxazine]-2′-carboxamide, N-[[4-fluoro-2-(1H-1,2,3-triazol-1-yl)phenyl]methyl]-6′,7′-dihydro-3′-hydroxy-4′-oxo-], the IC50 is 1 to 10 nM.

`O=C(NCc1ccc(F)cc1)c1nc2n(c(=O)c1O)CCCOC21CCOCC1` [Example 114, Spiro[4H-pyran-4,10′(4′H)-[6H]pyrimido[2,1-c][1,4]oxazepine]-2′-carboxamide, N-[(4-fluorophenyl)methyl]-2,3,5,6,7′,8′-hexahydro-3′-hydroxy-4′-oxo-]: the 50% inhibitory concentration (IC50) fell in the range of 1 to 10 nM.

Take `CNC(=O)c1cc(F)ccc1CNC(=O)c1nc2n(c(=O)c1O)CCCOC21CCOCC1` [Example 115, Spiro[4H-pyran-4,10′(4′H)-[6H]pyrimido[2,1-c][1,4]oxazepine]-2′-carboxamide, N-[[4-fluoro-2-[(methylamino)carbonyl]phenyl]methyl]-2,3,5,6,7′,8′-hexahydro-3′-hydroxy-4′-oxo-]: the IC50 lay in the range of 1 to 10 nM.

In the case of `CS(=O)(=O)c1cc(F)ccc1CNC(=O)c1nc2n(c(=O)c1O)CCCOC21CCOCC1` [Example 116, Spiro[4H-pyran-4,10′(4′H)-[6H]pyrimido[2,1-c][1,4]oxazepine]-2′-carboxamide, N-[[4-fluoro-2-(methylsulfonyl)phenyl]methyl]-2,3,5,6,7′,8′-hexahydro-3′-hydroxy-4′-oxo-], the concentration for half-maximal inhibition (IC50) lay within 10 to 100 nM.

`COP(=O)(OC)c1cc(F)ccc1CNC(=O)c1nc2n(c(=O)c1O)CCCOC21CCOCC1` [Example 117, Phosphonic acid, [5-fluoro-2-[[[(2,3,5,6,7′,8′-hexahydro-3′-hydroxy-4′-oxospiro[4H-pyran-4,10′(4′H) -[6H]pyrimido[2,1-c][1,4]oxazepin]-2′-yl)carbonyl]amino]methyl]phenyl]-, dimethyl ester]: the concentration for half-maximal inhibition (IC50) was in the range of 10 to 100 nM.

As to `Cc1ncn(-c2cc(F)ccc2CNC(=O)c2nc3n(c(=O)c2O)CCCOC32CCC2)n1` [Example 123, Spiro[cyclobutane-1,10′(4′H)-[6H]pyrimido[2,1-c][1,4]oxazepine]-2′-carboxamide, N-[[4-fluoro-2-(3-methyl-1H-1,2,4-triazol-1-yl)phenyl]methyl]-7′,8′-dihydro-3′-hydroxy-4′-oxo-], the half-maximal inhibitory concentration (IC50) was in the range of 1 to 10 nM.

On to `Cc1ncn(-c2cc(F)ccc2CNC(=O)c2nc3n(c(=O)c2O)CCOC32CCC2)n1` [Example 124, Spiro[cyclobutane-1,9′(4′H)-pyrimido[2,1-c][1,4]oxazine]-2′-carboxamide, N-[[4-fluoro-2-(3-methyl-1H-1,2,4-triazol-1-yl)phenyl]methyl]-6′,7′-dihydro-3′-hydroxy-4′-oxo-], for which the IC50 lay within 1 to 10 nM.

`O=C(NCc1ccccc1N1CCC1=O)c1nc2n(c(=O)c1O)CCOC21CCC1` [Example 125, Spiro[cyclobutane-1,9′(4′H)-pyrimido[2,1-c][1,4]oxazine]-2′-carboxamide, 6′,7′-dihydro-3′-hydroxy-4′-oxo-N-[[2-(2-oxo-1-azetidinyl)phenyl]methyl]-]: the IC50 was 1 to 10 nM.

As to `O=C(NCc1ccccc1N1CCOC1=O)c1nc2n(c(=O)c1O)CCOC21CCC1` [Example 126, Spiro[cyclobutane-1,9′(4′H)-pyrimido[2,1-c][1,4]oxazine]-2′-carboxamide, 6′,7′-dihydro-3′-hydroxy-4′-oxo-N-[[2-(2-oxo-3-oxazolidinyl)phenyl]methyl]-], the concentration for half-maximal inhibition (IC50) is 1 to 10 nM.

In the case of `Cc1nc(C)n(-c2cc(F)ccc2CNC(=O)c2nc3n(c(=O)c2O)CCOC32CCC2)n1` [Example 127, Spiro[cyclobutane-1,9′(4′H)-pyrimido[2,1-c][1,4]oxazine]-2′-carboxamide, N-[[2-(3,5-dimethyl-1H-1,2,4-triazol-1-yl)-4-fluorophenyl]methyl]-6′,7′-dihydro-3′-hydroxy-4′-oxo-], the IC50 was in the range of 10 to 100 nM.

With `Cc1nc(C)n(-c2cc(F)ccc2CNC(=O)c2nc3n(c(=O)c2O)CCCOC32CCC2)n1` [Example 128, Spiro[cyclobutane-1,10′(4′H)-[6H]pyrimido[2,1-c][1,4]oxazepine]-2′-carboxamide, N-[[2-(3,5-dimethyl-1H-1,2,4-triazol-1-yl)-4-fluorophenyl]methyl]-7′,8′-dihydro-3′-hydroxy-4′-oxo-], the IC50 fell in the range of 10 to 100 nM.

Regarding `Cc1ncn(-c2cc(F)ccc2CNC(=O)c2nc3n(c(=O)c2O)CCOC32CCCC2)n1` [Example 129, Spiro[cyclopentane-1,9′(4′H)-pyrimido[2,1-c][1,4]oxazine]-2′-carboxamide, N-[[4-fluoro-2-(3-methyl-1H-1,2,4-triazol-1-yl)phenyl]methyl]-6′,7′-dihydro-3′-hydroxy-4′-oxo-], the IC50 lay in the range of 1 to 10 nM.

As for `Cc1nc(C)n(-c2cc(F)ccc2CNC(=O)c2nc3n(c(=O)c2O)CCOC32CCCC2)n1` [Example 130, Spiro[cyclopentane-1,9′(4′H)-pyrimido[2,1-c][1,4]oxazine]-2′-carboxamide, N-[[2-(3,5-dimethyl-1H-1,2,4-triazol-1-yl)-4-fluorophenyl]methyl]-6′,7′-dihydro-3′-hydroxy-4′-oxo-], the concentration for half-maximal inhibition (IC50) was 1 to 10 nM.

`O=C(NCc1ccc(F)cc1-n1cncn1)c1nc2n(c(=O)c1O)CCNC21CCC1` [Example 131]: the half-maximal inhibitory concentration (IC50) lay in the range of 1 to 10 nM.

As for `O=C(NCc1ccc(F)cc1)c1nc2n(c(=O)c1O)CCNC21CCC1` [Example 132, Spiro[cyclobutane-1,9′(6′H)-[4H]pyrazino[1,2-a]pyrimidine]-2′-carboxamide, N-[(4-fluorophenyl)methyl]-7′,8′-dihydro-3′-hydroxy-4′-oxo-], the IC50 lay in the range of 1 to 10 nM.
